One molecule from patent US9790537B2, “Quinone-masked probes as labeling reagents for cell uptake measurements” (PROMEGA CORPORATION, priority 2014, dated 2017) can be followed below.

One series concerns the target OATP1B3 (Homo sapiens, UniProt Q9NPD5). As to the kind of experiment: Cell-based uptake transporter assay, TransportoCells OATP1B3, luminescence. Conditions: various concentrations, 30 min 37° C.; FIG. 13. The procedure:
(§1) Stock solutions of each compound were prepared as 10 mM in methanol. Corning TransportoCells OATP1B1*1a, OATP1B3, and Control Cells were used as cell model for cell-based uptake transporter assay. Cells were cultured according to manufacturer's recommendations. Briefly, cells were thawed from liquid nitrogen storage and cultured in Dulbecco's Modified Eagle's medium supplemented with fetal bovine serum (FBS), MEM non-essential amino acid, and sodium butyrate. Cells were then plated in Corning 96-well, poly-D-Lysine white/clear plate at 100,000 cells/well in 100 μl medium and incubated for 24 hours at 37° C. with 5% CO2.
(§2) The uptake transporter assay was carried out by adding 100 μl of Hank's balanced salt solution containing 10 μM of one of the compounds to all the cells and incubated at 37° C. for 30 minutes. […] After a 20 minute incubation at room temperature (20°-25° C.), luminescence was detected on a GloMax® luminometer. […]
(§3) The uptake transporter assay was carried out by adding 100 μl of Hank's balanced salt solution containing various concentrations (See FIG. 13) of PBI-5651 to all the cells and incubated at 37° C. for 30 minutes. […] After a 20 minute incubation at room temperature (20°-25° C.), luminescence was detected on a GloMax® luminometer.

Another series deals with OATP1B1*1a (Homo sapiens, UniProt Q9Y6L6). As to the kind of experiment: Cell-based uptake transporter assay, TransportoCells OATP1B1*1a, luminescence. The settings on record: various concentrations, 30 min 37° C.; FIG. 13. The procedure: as §1, §2, §3

Chain of OATP1B3 (Q9NPD5 whole entry): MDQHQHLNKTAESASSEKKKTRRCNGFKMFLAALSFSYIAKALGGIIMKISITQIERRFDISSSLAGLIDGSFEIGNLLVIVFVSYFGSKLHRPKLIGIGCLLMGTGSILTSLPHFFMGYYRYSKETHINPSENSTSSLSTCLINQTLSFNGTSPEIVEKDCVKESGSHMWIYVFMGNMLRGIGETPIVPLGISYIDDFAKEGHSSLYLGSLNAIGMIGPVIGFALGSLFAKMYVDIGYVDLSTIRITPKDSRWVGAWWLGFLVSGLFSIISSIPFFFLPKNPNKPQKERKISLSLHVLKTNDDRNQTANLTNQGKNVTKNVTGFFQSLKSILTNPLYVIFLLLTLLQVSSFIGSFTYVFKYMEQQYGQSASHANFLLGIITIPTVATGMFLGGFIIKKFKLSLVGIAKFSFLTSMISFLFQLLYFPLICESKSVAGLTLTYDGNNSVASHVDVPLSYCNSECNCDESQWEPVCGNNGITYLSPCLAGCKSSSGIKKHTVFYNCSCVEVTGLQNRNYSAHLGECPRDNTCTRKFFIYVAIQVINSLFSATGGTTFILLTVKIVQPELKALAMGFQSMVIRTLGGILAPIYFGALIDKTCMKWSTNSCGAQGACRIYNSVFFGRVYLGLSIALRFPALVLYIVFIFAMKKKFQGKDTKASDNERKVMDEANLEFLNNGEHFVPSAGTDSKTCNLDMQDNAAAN

Turning to `CC1=C(C)C(=O)C(C(C)(C)CC(=O)N(C)CCN(CCOCCOCCC(=O)NCCCCC(NC(=O)CC[C@@H](C)[C@H]2CC[C@H]3[C@@H]4[C@@H](O)C[C@@H]5C[C@H](O)CC[C@]5(C)[C@H]4CC[C@]23C)C(=O)O)C(=O)Oc2ccc3nc(C4=NC(C(=O)O)CS4)sc3c2)=C(C)C1=O` (stereo partly drawn) [PBI-5651, 2-(6-((((20R)-15-carboxy-20-((3R,5S,7S,8R,9S,10S,13R,14S,17R)-3,7-dihydroxy-10,13-dimethylhexadecahydro-1H-cyclopenta[a]phenanthren-17-yl)-9,17-dioxo-3,6-dioxa-10,16-diazahenicosyl)(2-(N,3-dimethyl-3-(2,4,5-trimethyl-3,6-dioxocyclohexa-1,4-dien-1-yl)butanamido)ethyl)carbamoyl)oxy)benzo[d]thiazol-2-yl)-4,5-dihydrothiazole-4-carboxylic acid], the “response of luminescence (RLU) to compound concentration” value on OATP1B3 and at OATP1B1*1a was “dynamic response of luminescence” in each case.
